The target of data set [1] is T1, EsaR (Pantoea stewartii subsp. stewartii, UniProt P54293).
T1 construct: expressed in transfected cells; host or cells: E. coli JLD271 (K12 ΔsdiA), arabinose-induced pJN105-esaR
Put plainly: cell-based. The method, boiled down: (§1)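 E. coli carrying arabinose-induced esaR plus pesaS (activated) or pesaR (repressed) promoter fused to lux or GFP; P. stewartii ESN51 GFP reporters also used.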

The target in data set [2] is T1, EsaR. Put plainly: cell-based. The method, boiled down: as §1
The source holds these as a separate data set.

In data set [3] the target is T1, EsaR. In words: P. stewartii ESN51 (ΔesaI) GFP reporter with EsaR-repressed promoter (pesaR). It is filed as cell-based. The source says:
(§2) EsaR transcriptional activation and repression were examined using E. coli and P. stewartii reporters (strains and plasmids listed in Table S1; see Methods section for assay details). […] We constructed reporters in E. coli based on previously reported EsaR reporters (Table S1). Each strain contained an EsaR expression plasmid (pJN105-esaR) and a reporter plasmid with either an EsaR-activated promoter (pesaS) or an EsaR-repressed promoter (pesaR) upstream of luxABCDE or GFP.
(§3) Gibson assembly was used to create all constructs. Plasmid pJN105-esaR was created by amplifying esaR from pAC-esaR and inserting it into pJN105. pesaSlux was created by inserting pesaS, amplified from pPesaR-AC:gfp, into the pCS-pesaRlux backbone. The pesaR promoter was amplified from pCS-pesaRlux and inserted into the pPesaR-AC:gfp backbone to create pesaR:GFP. P. stewartii reporter strains were created by transforming pesaR:GFP or pPesaR-AC:gfp into ESN51 by conjugation using E. coli S17 λpir as the donor strain. See SI for details of E. coli ExpR2 reporter construction.
(§4) Compound stocks were prepared and plated as described for E. coli reporter assays. […] Cultures were diluted to an OD600 of 0.05, and 198 μL was added to each well of a clear-bottom, black 96-well plate and incubated for 6 h at 28 °C (200 rpm) before reading fluorescence and OD600.

In a further data set the test system is P. stewartii ESN51. It is filed as cell-based, Pantoea stewartii. To be noted: OD600; 100 µM–1 mM tested. The source says:
We were curious whether the EsaR agonists identified in the E. coli reporters were also active in EsaR’s native host organism. In past studies, some E. coli LuxR-type receptor reporters have yielded EC50 values for exogenous ligands that differ by orders of magnitude relative to reporters constructed in native bacteria. Overexpression of LuxR-type receptors in E. coli has been proposed to lead to increased DNA binding and an overestimation of associative receptor sensitivity to agonists, as measured with lower EC50 values. However, because dissociative LuxR-type receptors bind to DNA in the absence of ligand, high receptor expression could instead lead to an underestimate of agonism. To account for any unintended effects of the E. coli genetic background and test compound activity at native levels of EsaR, we created genetic reporters in P. stewartii (see above and Methods section for details).
Supporting Information — Stoutland et al. […]
interesting that constitutive activituy (uninduced) from pesaR promoter is so much 2 4 6 […]
ESN51 pesaR-AC:GFP ESN51 pesaR:GFP
Figure S1. Luminescence inhibition, dynamic range, and growth of reporter strains. […]
(also on this page, place not known: 102 104 106 percent activation (GFP/OD600 - JLD)/3OC6 Normalized luminescence ✱✱✱✱✱✱✱✱ controls GFP/OD600 pesaS OD600 GAF 0.3 0.4 OD600 1mM 300µM)

Data set [4] deals with T1, EsaR. Put plainly: P. stewartii ESN51 (ΔesaI) GFP reporter with EsaR-activated promoter (pesaS). It is filed as cell-based.
Source text: as §2, §3, §4

The nature of data set [5]: Solubility remark on supplementary figure page. It is filed as physicochemical. To be noted: stray annotation on SI page 6.

Structures are written as SMILES.

T1 sequence (P54293 whole entry): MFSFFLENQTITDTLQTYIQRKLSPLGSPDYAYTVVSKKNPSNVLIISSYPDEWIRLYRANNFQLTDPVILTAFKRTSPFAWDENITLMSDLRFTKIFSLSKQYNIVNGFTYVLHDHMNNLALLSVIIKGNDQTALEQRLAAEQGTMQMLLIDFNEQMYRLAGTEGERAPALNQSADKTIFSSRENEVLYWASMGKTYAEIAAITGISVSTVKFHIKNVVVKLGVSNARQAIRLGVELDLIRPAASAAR

As to `O=C1OCC[C@@H]1NS(=O)(=O)c1ccc(Br)cc1` [GAF 35], the EC50 on EsaR [1] is 23 µM; on EsaR [2], 23 µM; at EsaR [3] it was 27 µM; at EsaR [4], 24 µM. In the data set on P. stewartii ESN51, the “growth inhibition in P. stewartii ESN51 reporters” value is recorded as “Growth inhibition”.
As for `O=C1OCC[C@@H]1NS(=O)(=O)c1ccc(Cl)c(F)c1` [GAF 64, 3-F, 4-Cl BSHL], the EC50 at EsaR [3] stood at 6.7 µM; at EsaR [4], 2.7 µM. The “growth inhibition in P. stewartii ESN51 reporters” value in the data set with P. stewartii ESN51 is on record as “Growth inhibition”.
For the compound `O=C(N[C@H]1CCOC1=O)c1ccc(Cl)c(Cl)c1` [GAF 58], the “EsaR agonism at 100 μM (bound stated in text)” value on EsaR [1] (100 μM, E. coli EsaR reporter) was “less than 50%”. For the same compound, the solubility remark result in data set [5] was “slighly insoluble”.

(Values after paper PMC12459020, “Chemical Probes that Target a Dissociative LuxR-Type Quorum Sensing Receptor in Gram-Negative Bacteria” (ACS Chemical Biology, 2025).)
